In test [1] the target is T1, recombinant human HDAC1 (Homo sapiens, UniProt Q13547).
T1 construct: FLAG (C); made in house; host or cells: Hi5 insect cells
Description: In vitro enzyme assay of recombinant HDAC1 (Test (a)). The settings on record: recombinant human HDAC1, acetylated histone H4 peptide substrate; read-out: IC50 Test (a) (In vitro assay for the inhibition of HDAC1). The format is biochemical. How it is done: (a) In Vitro Enzyme Assay of Recombinant HDAC1
HDAC inhibitors were screened against recombinant human HDAC1 produced in Hi5 insect cells. The enzyme was cloned with a FLAG tag at the C-terminal of the gene and affinity purified using Anti-FLAG M2 agarose from SIGMA (A2220).
The deacetylase assays were carried out in a 50 μl reaction. HDAC1 (75 ng of enzyme) diluted in 15 μl of reaction buffer (25 mM TrisHCl (pH 8), 137 mM NaCl, 2.7 mM KCl, 1 mM MgCl2) was mixed with either buffer alone (10 μl) or buffer containing compound (10 μl) for 30 minutes at ambient temperature. 25 μM acetylated histone H4 peptide (KI 174 Biomol) diluted in 25 μl of buffer was then added to the reaction and incubated for one hour at ambient temperature. The reaction was stopped by addition of an equal volume (50 μl) of Fluor de Lys developer (Biomol) containing Trichostatin A at 2 μM. The reaction was allowed to develop for 30 minutes at ambient temperature and then fluorescence measured at an excitation wavelength of 360 nm and an emission wavelength of 465 nm. IC50 values for HDAC enzyme inhibitors were determined by performing dose response curves with individual compounds and determining the concentration of inhibitor producing fifty percent decrease in the maximal signal (diluent control).

The test system of test [2] is HCT116 cells. Kind of test: In vitro assay of inhibition of proliferation in whole cells (Test (b)). The format is cell-based. The note with it: Homo sapiens, HCT-116, 72 hours, MTS, read-out: IC50 Test (b) (In vitro assay for the inhibition of whole cell proliferation). How it is done: (b) In Vitro Assay of Inhibition of Proliferation in Whole Cells
Inhibition of proliferation in whole cells was assayed using the Promega cell titer 96 aqueous proliferation assay (Promega #G5421). HCT116 cells were seeded in 96 well plates at 1×10^3 cells/well, and allowed to adhere overnight. They were treated with inhibitors for 72 hours. 20 μl of the tetrazolium dye MTS was added to each well and the plates were re-incubated for 3 hours. Absorbance was then measured on a 96 well plate reader at […]. The IC50 values for HDAC inhibitors were determined by performing dose response curves with individual compounds and determining the concentration of inhibitor producing fifty percent decrease in the maximal signal (diluent control).

T1 sequence (Q13547 whole entry): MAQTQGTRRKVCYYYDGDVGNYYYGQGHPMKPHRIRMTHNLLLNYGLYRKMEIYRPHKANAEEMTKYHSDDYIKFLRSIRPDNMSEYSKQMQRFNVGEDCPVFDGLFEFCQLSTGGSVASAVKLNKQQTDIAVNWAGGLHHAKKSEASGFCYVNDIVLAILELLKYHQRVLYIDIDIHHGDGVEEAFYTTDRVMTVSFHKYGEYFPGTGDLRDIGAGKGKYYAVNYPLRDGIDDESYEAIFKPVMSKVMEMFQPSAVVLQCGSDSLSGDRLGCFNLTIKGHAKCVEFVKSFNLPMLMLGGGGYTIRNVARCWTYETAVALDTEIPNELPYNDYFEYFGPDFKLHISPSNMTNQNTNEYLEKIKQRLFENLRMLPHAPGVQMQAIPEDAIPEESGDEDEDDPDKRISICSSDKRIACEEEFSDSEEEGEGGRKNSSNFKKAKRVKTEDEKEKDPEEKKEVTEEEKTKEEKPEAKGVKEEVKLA

On to `Nc1ccccc1NC(=O)c1ccc(C2CCN(Cc3ccccn3)CC2)cc1` [Comparative Compound 1, N-(2-aminophenyl)-4-[1-(pyrid-2-ylmethyl)piperidin-4-yl]benzamide], for which the IC50 in test [1] was 100 nM; in test [2], 1430 nM.

Consider `COc1c(CN2CCC(c3ccc(C(=O)Nc4ccccc4N)cc3)CC2)c(C)nn1C` [Example 4, N-(2-Aminophenyl)-4-{1-[(5-methoxy-1,3-dimethyl-1H-pyrazol-4-yl)methyl]piperidin-4-yl}benzamide], for which the values for the IC50 in test [1] and in test [2] were 81 nM and 508 nM, respectively.

For the origin of these results see patent US8735429B2, “Benzamide compounds useful as histone deacetylase inhibitors” (AstraZeneca AB, priority 2005, dated 2014).
